For assay [1], the system named is ISC-enriched organoids. In words: Primary screen, 384-well 2.5-D organoid differentiation (ENR+CD, 6 days, Target Selective Inhibitor Library, vs whole-plate median): ATP (CellTiter-Glo 3D, CTG). To be noted: for Dose.FC.CTG (log 2 fold change, ATP): vs plate median.
Assay [2] relates to ISC-enriched organoids. Put plainly: Primary screen, 384-well 2.5-D organoid differentiation (ENR+CD, 6 days): basal lysozyme secretion (LYZ.NS). The assay is classed as cell-based, murine. To be noted: for Dose.FC.LYZ.NS (log 2 fold change, basal lysozyme secretion): vs plate median. The text has this: (§1) High-throughput screening.
For assay [3], the system named is ISC-enriched organoids. Put plainly: Primary screen, 384-well 2.5-D organoid differentiation (ENR+CD, 6 days): carbachol-induced lysozyme secretion (LYZ.S). The assay is classed as cell-based, murine. To be noted: vs plate median.
Description: as §1

This note sets out measurements from patent US20230398130A1, “METHODS AND COMPOSITIONS FOR DIFFERENTIATING STEM CELLS” (Massachusetts Institute of Technology, priority 2020, published 2023).

Structures are written as SMILES.

Turning to `C[C@]1(c2nc3c(C(N)=O)cccc3[nH]2)CCCN1` [Veliparib (ABT-888)], the “Z.CTG (standard z score)” value is recorded as 0.307 with ISC-enriched organoids [1] (dose 0.08 uM), 0.132 in the assay with ISC-enriched organoids [1] (dose 0.40 uM), −0.057 in the assay on ISC-enriched organoids [1] (dose 2.00 uM) and −0.521 in the assay on ISC-enriched organoids [1] (dose 10.00 uM). The “Dose.FC.CTG (log 2 fold change, ATP)” value in the assay with ISC-enriched organoids [1] (dose 0.08 uM) was 0.128; in the assay with ISC-enriched organoids [1] (dose 0.40 uM) it was 0.055; in the assay with ISC-enriched organoids [1] (dose 2.00 uM) it was −0.024; in the assay on ISC-enriched organoids [1] (dose 10.00 uM), −0.218. The “Z.LYZ.NS (standard z score)” value is on record as 0.649 in the assay on ISC-enriched organoids [2] (dose 0.08 uM), 1.211 with ISC-enriched organoids [2] (dose 0.40 uM), 0.203 with ISC-enriched organoids [2] (dose 2.00 uM) and −0.537 in the assay with ISC-enriched organoids [2] (dose 10.00 uM). Also, the “Dose.FC.LYZ.NS (log 2 fold change, basal lysozyme secretion)” value is 0.075 in the assay with ISC-enriched organoids [2] (dose 0.08 uM), 0.139 in the assay on ISC-enriched organoids [2] (dose 0.40 uM), 0.023 in the assay with ISC-enriched organoids [2] (dose 2.00 uM) and −0.062 with ISC-enriched organoids [2] (dose 10.00 uM). The “Dose.FC.LYZ.S (log 2 fold change, carbachol-induced lysozyme secretion)” value in the assay on ISC-enriched organoids [3] (dose 0.08 uM) was 0.105; with ISC-enriched organoids [3] (dose 0.40 uM), 0.179; with ISC-enriched organoids [3] (dose 2.00 uM) it was −0.016; in the assay on ISC-enriched organoids [3] (dose 10.00 uM) it was −0.136.

For the compound `CCCS(=O)(=O)Nc1ccc(F)c(C(=O)c2c[nH]c3ncc(-c4ccc(Cl)cc4)cc23)c1F` [Vemurafenib (PLX4032, RG7204)], the “Z.CTG (standard z score)” value with ISC-enriched organoids [1] (dose 0.08 uM) is recorded as 0.297; with ISC-enriched organoids [1] (dose 0.40 uM) it was −0.195; with ISC-enriched organoids [1] (dose 2.00 uM), −0.014; with ISC-enriched organoids [1] (dose 10.00 uM), 0.073. Besides, the “Dose.FC.CTG (log 2 fold change, ATP)” value is on record as 0.124 with ISC-enriched organoids [1] (dose 0.08 uM), −0.082 in the assay with ISC-enriched organoids [1] (dose 0.40 uM), −0.006 in the assay with ISC-enriched organoids [1] (dose 2.00 uM) and 0.030 in the assay on ISC-enriched organoids [1] (dose 10.00 uM). The “Z.LYZ.NS (standard z score)” value with ISC-enriched organoids [2] (dose 0.08 uM) is recorded as 0.786; with ISC-enriched organoids [2] (dose 0.40 uM), 0.462; in the assay on ISC-enriched organoids [2] (dose 2.00 uM), 0.411; in the assay on ISC-enriched organoids [2] (dose 10.00 uM) it was 0.263. Also, the “Dose.FC.LYZ.NS (log 2 fold change, basal lysozyme secretion)” value in the assay with ISC-enriched organoids [2] (dose 0.08 uM) came out at 0.090; with ISC-enriched organoids [2] (dose 0.40 uM), 0.053; in the assay with ISC-enriched organoids [2] (dose 2.00 uM) it was 0.047; in the assay on ISC-enriched organoids [2] (dose 10.00 uM), 0.030. Besides, the “Dose.FC.LYZ.S (log 2 fold change, carbachol-induced lysozyme secretion)” value in the assay on ISC-enriched organoids [3] (dose 0.08 uM) is given as 0.120; in the assay on ISC-enriched organoids [3] (dose 0.40 uM) it was 0.150; in the assay on ISC-enriched organoids [3] (dose 2.00 uM), 0.055; in the assay on ISC-enriched organoids [3] (dose 10.00 uM), 0.022.

Consider `N#C[C@@H]1CCCN1C(=O)CNC12CC3CC(CC(O)(C3)C1)C2` [Vildagliptin (LAF-237)], for which the “Z.CTG (standard z score)” value in the assay on ISC-enriched organoids [1] (dose 0.08 uM) was determined as 0.553; with ISC-enriched organoids [1] (dose 0.40 uM) it was 0.547; in the assay on ISC-enriched organoids [1] (dose 2.00 uM) it was 0.358; in the assay with ISC-enriched organoids [1] (dose 10.00 uM), 0.811. The “Dose.FC.CTG (log 2 fold change, ATP)” value stood at 0.232 with ISC-enriched organoids [1] (dose 0.08 uM), 0.229 in the assay on ISC-enriched organoids [1] (dose 0.40 uM), 0.150 in the assay with ISC-enriched organoids [1] (dose 2.00 uM) and 0.339 with ISC-enriched organoids [1] (dose 10.00 uM). The “Z.LYZ.NS (standard z score)” value is reported as 1.285 in the assay with ISC-enriched organoids [2] (dose 0.08 uM), 2.004 in the assay with ISC-enriched organoids [2] (dose 0.40 uM), 1.478 with ISC-enriched organoids [2] (dose 2.00 uM) and 0.846 in the assay with ISC-enriched organoids [2] (dose 10.00 uM). Also, the “Dose.FC.LYZ.NS (log 2 fold change, basal lysozyme secretion)” value with ISC-enriched organoids [2] (dose 0.08 uM) came to 0.148; in the assay with ISC-enriched organoids [2] (dose 0.40 uM) it was 0.230; in the assay with ISC-enriched organoids [2] (dose 2.00 uM), 0.170; with ISC-enriched organoids [2] (dose 10.00 uM), 0.097. Moreover, the “Dose.FC.LYZ.S (log 2 fold change, carbachol-induced lysozyme secretion)” value was found to be 0.099 in the assay on ISC-enriched organoids [3] (dose 0.08 uM), 0.113 with ISC-enriched organoids [3] (dose 0.40 uM), 0.038 with ISC-enriched organoids [3] (dose 2.00 uM) and 0.013 in the assay with ISC-enriched organoids [3] (dose 10.00 uM).

As to `c1ccc(NCc2ccc(CNc3ccccn3)cc2)nc1` [WZ811], the “Z.CTG (standard z score)” value in the assay with ISC-enriched organoids [1] (dose 0.08 uM) was 0.334; in the assay with ISC-enriched organoids [1] (dose 0.40 uM), −0.082; with ISC-enriched organoids [1] (dose 2.00 uM), 0.184; with ISC-enriched organoids [1] (dose 10.00 uM) it was 0.104. Further, the “Dose.FC.CTG (log 2 fold change, ATP)” value in the assay with ISC-enriched organoids [1] (dose 0.08 uM) was 0.140; in the assay with ISC-enriched organoids [1] (dose 0.40 uM), −0.034; with ISC-enriched organoids [1] (dose 2.00 uM), 0.077; in the assay on ISC-enriched organoids [1] (dose 10.00 uM), 0.044. The “Z.LYZ.NS (standard z score)” value in the assay with ISC-enriched organoids [2] (dose 0.08 uM) amounted to 1.337; in the assay on ISC-enriched organoids [2] (dose 0.40 uM) it was 0.162; with ISC-enriched organoids [2] (dose 2.00 uM) it was 0.815; in the assay on ISC-enriched organoids [2] (dose 10.00 uM) it was 0.045. Besides, the “Dose.FC.LYZ.NS (log 2 fold change, basal lysozyme secretion)” value in the assay with ISC-enriched organoids [2] (dose 0.08 uM) worked out at 0.154; in the assay with ISC-enriched organoids [2] (dose 0.40 uM), 0.019; with ISC-enriched organoids [2] (dose 2.00 uM), 0.094; in the assay on ISC-enriched organoids [2] (dose 10.00 uM) it was 0.005. For the same compound, the “Dose.FC.LYZ.S (log 2 fold change, carbachol-induced lysozyme secretion)” value in the assay with ISC-enriched organoids [3] (dose 0.08 uM) was 0.296; with ISC-enriched organoids [3] (dose 0.40 uM) it was 0.007; with ISC-enriched organoids [3] (dose 2.00 uM), 0.074; with ISC-enriched organoids [3] (dose 10.00 uM), 0.019.
